Experimental data from PubChem BioAssay (NCI).
Where “and” joins values, the source holds several entries; their conditions need not be identical. Identical values can stand only once.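 Compound exposure: 48 hours, 5 concentrations, 96-well plates. GI50 is the concentration that inhibits growth by half. The concentration for full growth arrest is given as TGI.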

Experiments:
Test in all cases: DTP human tumour cell line panel, 48 h
[1] = test system: SNB-75 CNS
[2] = test system: CAKI-1 renal
[3] = test system: OVCAR-3 ovarian
[4] = test system: OVCAR-8 ovarian
[5] = test system: KM12 colon
[6] = test system: NCI-H23 lung
[7] = test system: HCT-15 colon
[8] = test system: SF-295 CNS
[9] = test system: MALME-3M melanoma
[10] = test system: RPMI-8226 leukemia

| Structure (SMILES) | TGI [1] | TGI [2] | TGI [3] | TGI [4] | TGI [5] | TGI [6] | TGI [7] | TGI [8] | TGI [9] | TGI [10] | GI50 [1] | GI50 [2] | GI50 [3] | GI50 [4] | GI50 [5] | GI50 [6] | GI50 [7] | GI50 [8] | GI50 [9] | GI50 [10] |
| --- | --- | --- | --- | --- | --- | --- | --- | --- | --- | --- | --- | --- | --- | --- | --- | --- | --- | --- | --- | --- |
| OC(c1ccc(Br)cc1)(c1cccs1)C1CC1 (configuration not stated) | 66.2 µM | 69.6 µM | 35.9 µM | 54.1 µM | 35.3 µM | 56.9 µM | 65.7 µM | 44.6 µM | 41.5 µM | 54.7 µM | – | – | – | – | – | – | – | – | – | – |
| CCCCCCCCCCCC[n+]1ccccc1 (tested in a mixture with another compound) | 3.84 µM | 9.03 µM | 2.44 µM | 11.3 µM | 1.59 µM | 5.48 µM | 19.3 µM | 2.52 µM | 2.77 µM | 1.52 µM | 1.08 µM | 1.01 µM | 0.722 µM | 0.777 µM | 0.38 µM | 0.655 µM | 3.8 µM | 0.712 µM | 0.633 µM | 0.23 µM |
| CC(=O)OC1COC(n2c(=S)n(-c3ccccc3)c(=O)c3cc(Br)ccc32)C(OC(C)=O)C1OC(C)=O (configuration not stated) | 30.6 µM | > 100 µM | > 100 µM | > 100 µM | > 100 µM | > 100 µM | > 100 µM | > 100 µM | > 100 µM | > 100 µM | – | – | – | – | – | – | – | – | – | – |
| COc1ccc(/C=C2/CCc3cc4ccc(OC)cc4[o+]c32)c(O)c1 | 27.9 µM | 22.5 µM | 6.09 µM | 6.13 µM | 7.44 µM | 30.1 µM | 6.03 µM | 38 µM | 11.7 µM | 12.9 µM | 12.9 µM | 10.7 µM | 2.48 µM | 2.27 µM | 2.65 µM | 10.4 µM | 2.25 µM | 16.3 µM | 3.08 µM | 3.17 µM |
| O=C1C(Cl)=C(Nc2ccccc2)C(=O)c2ccccc21 | 12 µM | 3.13 µM | 3.15 µM | 3.2 µM | > 100 µM | 4.25 µM | 2.92 µM | 24.1 µM | 3.72 µM | 6.84 µM | 1.83 µM | 1.73 µM | 1.67 µM | 1.71 µM | 6.23 µM | 1.92 µM | 1.26 µM | 10.6 µM | 1.92 µM | 2.28 µM |
| CN(C)Cc1c[nH]c2c(NCCN)c3c(c(NCCN)c12)C(=O)c1ccccc1C3=O | 17 µM | 41.7 µM | 6.43 µM | 11 µM | 7.11 µM | 8.99 µM | 20 µM | 8.45 µM | 18.7 µM | 6.52 µM | 6.13 µM | 20.8 µM | 1.74 µM | 0.726 µM | 1.59 µM | 2.22 µM | 6.97 µM | 2.49 µM | 3.99 µM | 1.43 µM |
| COc1c(Br)cc(Br)c(OC)c1-c1[nH]c(Br)c(Br)c1Br | 17.6 µM | 9.1 µM | 14.3 µM | 25 µM | 21.1 µM | 13.8 µM | 20.1 µM | 17.4 µM | 16.6 µM | 13.2 µM | – | – | – | – | – | – | – | – | – | – |
| Cc1cc2c(Br)cc(Br)c(O)c2nc1C(=O)c1ccccc1 | > 100 µM | > 100 µM | > 79 µM | > 100 µM | > 100 µM | 51.1 µM | > 45.5 µM | > 56.4 µM | > 76.9 µM | > 100 µM | – | – | – | – | – | – | – | – | – | – |
| C=CCO/N=C/c1cc(NC(=S)c2ccoc2C)ccc1Cl | 38.2 µM | 23.6 µM | 24.3 µM | 33.9 µM | 25.5 µM | 26.7 µM | 23.8 µM | 26.6 µM | 31.3 µM | 12.1 µM | – | – | – | – | – | – | – | – | – | – |
| C=C1CC2(OC1=O)C(=O)N(CCCN1C(=O)C3(CC(=C)C(=O)O3)c3ccccc31)c1ccccc12 (configuration not stated) | 26.8 µM | 2.39 µM | 1.83 µM | 5.49 µM | 12 µM | 6.14 µM | 2.55 µM | 26 µM | 3.21 µM | 2.78 µM | 3.44 µM | 1.17 µM | 0.571 µM | 1.35 µM | 2.72 µM | 2.34 µM | 0.956 µM | 13.2 µM | 1.7 µM | 0.579 µM |
| Cc1ncc(C(=O)Nc2ccc(CN3CCN(C)CC3)c(C(F)(F)F)c2)cc1C#Cc1cnc(NC2CC2)c2ncccc12 | 5.75 µM | 3.47 µM | 1.28 µM | 1.54 µM | 0.819 µM | 1.36 µM | 1.1 µM | 1.68 µM | 1.15 µM | 1.62 µM | 1.81 µM | 1.66 µM | 0.693 µM | 0.708 µM | 0.197 µM | 0.646 µM | 0.566 µM | 0.747 µM | 0.57 µM | 0.621 µM |
| O=C(/C=C/c1ccccc1)CC(c1ccccc1)N1CCOCC1 (configuration not stated) | 27.7 µM | 12.9 µM | 11.6 µM | 17.3 µM | 3.72 µM | 4.4 µM | 5.52 µM | 10.5 µM | 19.9 µM | 5.21 µM | 12.5 µM | 3.38 µM | 3.71 µM | 4.57 µM | 1.99 µM | 2 µM | 1.96 µM | 2.7 µM | 4.4 µM | 1.98 µM |
| CC1CCCc2c1nn(C(=O)/C=C(\N)c1ccccc1)c2N (configuration not stated) | > 100 µM | 15.4 µM | 32.6 µM | > 100 µM | > 100 µM | 92.9 µM | > 100 µM | > 100 µM | > 100 µM | > 100 µM | 25.6 µM | 4.11 µM | 5.61 µM | 8.5 µM | 5.97 µM | 5.5 µM | 5.85 µM | 30.6 µM | 9.4 µM | 9.13 µM |
| CCOC(=O)C(=O)Nc1ccccc1C(F)(F)F | > 100 µM | > 100 µM | > 100 µM | > 100 µM | > 100 µM | > 100 µM | > 100 µM | > 100 µM | > 100 µM | > 100 µM | – | – | – | – | – | – | – | – | – | – |
| O=c1c(Cl)c(Cl)cnn1CCc1ccncc1 | 33.2 µM | 3.99 µM | 31.4 µM | 43.1 µM | 28.1 µM | 34.1 µM | 31.3 µM | 83 µM | 39.6 µM | > 100 µM | – | – | – | – | – | – | – | – | – | – |
| CNC(=O)c1cc2c(Oc3ccc(NC(=O)C4(C(=O)Nc5ccc(F)cc5)CC4)cc3)ccnc2cc1OC | 2.74 µM | 3.33 µM | > 100 µM | > 100 µM | > 100 µM | > 100 µM | > 100 µM | 6.26 µM | 9.45 µM | 55.9 µM | 0.0837 µM | 1.52 µM | 3.48 µM | 3.77 µM | 0.196 µM | 2.17 µM | 2.77 µM | 0.177 µM | 1.66 µM | 2.6 µM |
| Cc1nc(Nc2n[nH]c3c2CN(C(=O)N[C@H](CN(C)C)c2ccccc2)C3(C)C)c2sccc2n1 | 2.23 µM and 2.82 µM | > 5.08 µM and 51.9 µM | 1.57 µM and 7.36 µM | > 10 µM and 15.6 µM | > 4.68 µM and 4.45 µM | 2.8 µM and 4.42 µM | > 10 µM and 68.5 µM | > 10 µM and 8.62 µM | 0.497 µM and 2.44 µM | > 4.74 µM and 5.69 µM | 0.206 µM and 0.284 µM | – | 0.0255 µM and 0.0584 µM | 0.0839 µM and 0.306 µM | 0.0493 µM and 0.0739 µM | 0.0136 µM and 0.0207 µM | 0.687 µM and 1.26 µM | 0.078 µM and 0.066 µM | 0.0473 µM and < 0.01 µM | 0.148 µM and 0.107 µM |
| Cn1c([N+](=O)[O-])cnc1/C=C1\Oc2cc(Cl)ccc2C1=O | 9.38 µM | 1.18 µM | 2.31 µM | > 100 µM | 6.78 µM | 4.47 µM | 1.05 µM | > 42.7 µM | 4.13 µM | > 20.5 µM | 1.8 µM | 0.296 µM | 0.441 µM | 0.401 µM | 0.501 µM | 0.766 µM | 0.267 µM | 2.72 µM | 0.837 µM | 1.73 µM |
| CC/C(=N\NS(=O)(=O)c1ccccc1)c1ccccc1 | > 100 µM | > 100 µM | > 100 µM | > 100 µM | > 100 µM | > 100 µM | > 100 µM | > 100 µM | > 100 µM | > 100 µM | – | – | – | – | – | – | – | – | – | – |
| C[n+]1c2ccccc2cc2c(CNC(CCCN=C(N)N)C(=O)O)cccc21 (configuration not stated) | 10.8 µM | 2.07 µM | 6.36 µM and 4.58 µM | 5.11 µM and 7.74 µM | 1.72 µM and 1.57 µM | 18.4 µM | 1.44 µM and 2.52 µM | 17.5 µM | 4.54 µM and 10.7 µM | 0.679 µM and 1.56 µM | 1.82 µM | – | 1.57 µM | 2.42 µM | – | 4.19 µM | 0.551 µM | 5.03 µM | 3.48 µM | 0.327 µM |
| O=S1(=O)NCCCN1CCNc1nccc(-c2c(-c3cccc(O)c3)nc3sccn23)n1 | > 100 µM | > 94 µM | > 100 µM | > 100 µM | > 90.4 µM | > 100 µM | > 100 µM | > 100 µM | 3.26 µM | > 87.5 µM | 7.78 µM | 17.4 µM | 19.4 µM | 2.86 µM | 33.3 µM | 29 µM | 43.6 µM | 51.9 µM | 0.108 µM | 35.9 µM |
| CCN(CC)CCNC(=O)c1c(C)[nH]c(/C=C2\C(=O)Nc3ccc(F)cc32)c1C | > 10 µM and 4.55 µM and 14 µM | > 10 µM and 20 µM and 6.77 µM | > 10 µM and 6.34 µM and 7.54 µM | > 10 µM and 6.95 µM and 23.1 µM | > 10 µM and 3.03 µM and 5.54 µM | > 10 µM and 9.21 µM and 14.5 µM | > 10 µM and 20 µM and 13.3 µM | > 10 µM and 8.23 µM and 24.1 µM | 6.55 µM and 5.1 µM and 2.91 µM | > 10 µM and 10.9 µM and 5.31 µM | 4.61 µM and 2.11 µM and 4.33 µM | 1.07 µM and 1.04 µM and 0.794 µM | > 10 µM and 3.41 µM and 3.33 µM | 9.05 µM and 2.81 µM and 6.09 µM | 0.11 µM and 0.1 µM and 0.0322 µM | 3.88 µM and 2.6 µM and 2.39 µM | 1.22 µM and 1.23 µM and 1.13 µM | > 10 µM and 4.09 µM and 10.2 µM | 1.87 µM and 2.18 µM and 1.16 µM | 2.93 µM and 4.58 µM and 1.46 µM |
